For data set [1], the system named is individual recombinant human P450 enzymes.
The conditions of data set [2]: rat, in vivo, po, 30 mg/kg; cited from earlier work.
For data set [3] the following is noted: human, in vivo, po; cited from earlier work.
For data set [4] the following is noted: in vivo, cited from earlier work.

As for `CCCCCCCCC(=O)NCc1ccc(OC)c(OC)c1` [N-(3,4-dimethoxybenzyl)nonanamide], in the data set on human liver microsomes, the “formation of G3 from the analogue, versus capsaicin” value was “absent” and the “formation of conjugates equivalent to G1/G2 from the analogue, versus capsaicin” value is recorded as “diminished”.
As to `CCCCCCCCC(=O)NCc1ccc(O)c(O)c1` [N-(3,4-dihydroxybenzyl)nonanamide], the “formation of G3 from the analogue, versus capsaicin” value in the data set with human liver microsomes is reported as “absent”.
Consider `CCCCCCCCC(=O)NCc1cccc(OC)c1` [N-(3-methoxybenzyl)nonanamide], for which, in the data set on human liver microsomes, the “formation of G3 from the analogue, versus capsaicin” value is reported as “absent” and the “formation of conjugates equivalent to G1/G2 from the analogue, versus capsaicin” value is listed as “diminished”.
For the compound `COc1cc(CNC(=O)CCCC/C=C/C(C)C)cc(-c2cc(CNC(=O)CCCC/C=C/C(C)C)cc(OC)c2O)c1O` [Dimer, 5,5’-Dicapsaicin], the “P450 enzymes producing the conjugate/dimer from capsaicin” value in data set [1] is “CYP2D6, 2C9, and 2C8”.
In the case of `CCCCCCCCC(=O)NCc1ccc(O)cc1` [N-(4-hydroxybenzyl)nonanamide], in the data set on human liver microsomes, the “formation of G3 from the analogue, versus capsaicin” value is given as “greater” and the “formation of conjugates equivalent to G1/G2 from the analogue, versus capsaicin” value is on record as “increased”.
For the compound `CCCCCCCCC(=O)NCc1ccc(OC)c(O)c1` [N-(3-hydroxy-4-methoxybenzyl)nonanamide], in the data set with human liver microsomes, the “formation of G3 from the analogue, versus capsaicin” value is listed as “absent” and the “formation of conjugates equivalent to G1/G2 from the analogue, versus capsaicin” value is given as “unchanged”.
In the case of `CCCCCCCCC(=O)NCc1ccc(O)c(OC)c1` [nonivamide, N-vanillylnonanamide], in the data set with human liver microsomes, the “G4 and G5 formation from the analogue” value is listed as “roughly equivalent to capsaicin”; the “formation of G3 from the analogue, versus capsaicin” value is on record as “comparable to capsaicin”; the “formation of conjugates equivalent to G1/G2 from the analogue, versus capsaicin” value was “unchanged”.
Take `COc1cc(CNC(=O)CCCC/C=C/C(C)C)ccc1O` [Capsaicin, trans-8-methyl-N-vanillyl-6-nonenamide]: in data set [2], the “absorption from the intestine” value is given as 94%, the “amount found in intestine” value is recorded as ~ 1,060 mg/tissue, the “amount found in kidney” value is given as ~ 7 mg/tissue and the “amount found in liver” value is given as ~ 45 mg/tissue. The peak serum concentration in data set [2] is 6.2 µM. For the same compound, in data set [3], the AUC is on record as ~ 1.7 ng*h/mL, the T1/2 is 0.42 h and the Tmax is recorded as ~ 0.78 h. Also, in data set [4] (human), the “estimated T1/2” value is recorded as 1.6 h. Besides, in data set [4], the “time within which capsaicin was cleared in most patients” value is on record as at most 4.5 h.
For `CCCCCCCCC(=O)NCc1ccccc1` [N-benzylnonanamide], in the data set with human liver microsomes, the “formation of G3 from the analogue, versus capsaicin” value is reported as “absent” and the “formation of conjugates equivalent to G1/G2 from the analogue, versus capsaicin” value is listed as “diminished”.

The values are drawn from PMC3610763 (Chemical research in toxicology, 2012).
